Laboratory results reported in patent US20240299416A1, “TREATMENT OF NF-kB-MEDIATED DISEASE” (ReveraGen BioPharma, Inc., priority 2021, published 2024).
Where two headings read alike, the source gives them in different places.

Legend:
[1] = tested on: boys with DMD; assay: VBP15-003/VBP15-LTE motor outcomes over 18 months vs CINRG DNHS; assay type: in vivo, human; conditions: vs corticosteroid-naïve participants, ANCOVA
Source text: Assessments of efficacy were motor outcomes (primary outcome: time to stand from supine [TTSTAND]; secondary outcomes: time to run/walk 10 meters [TTRW], time to climb four stairs [TTCLIMB], distance covered in 6-minute walk test [6MWT], and the North Star Ambulatory Assessment [NSAA]). 6MWT and NSAA were not assessed in most CINRG DNHS participants and were not compared to vamorolone-treated participants. According to standard operating procedures, clinical evaluators were trained to harmonize the CINRG vamorolone, CINRG DNHS, and CINRG prednisone studies. Reliability of these outcomes (percent coefficient of variation) has been reported for the VBP15-002/VBP15-003 studies. Assessments were done at baseline (VBP15-002 entry), 24 weeks (VBP15-003 last visit), and 18 months (VBP15-LTE midpoint assessment at 12 months).
Only participants completing VBP15-002 and VBP15-003 were eligible to enroll in VBP15-LTE. […]
Statistical analyses were done on paired longitudinal outcome data using an analysis of covariance (ANCOVA) approach with change from baseline (VBP15-002) to month 18 (midpoint of VBP15-LTE). […] For the vamorolone-treated participants, age was calculated as (date of informed consent minus birthdate)/365.25. For the DNHS participants, age was calculated as (date of baseline visit used minus birthdate)/365.25. […]

[2] = tested on: boys with DMD; assay: VBP15-LTE month 24 PODCI and wrist x-ray bone age; assay type: in vivo, human
Source text: In addition, 39/41 LTE participants had wrist x-ray at Month 24; the mean bone age to chronologic age difference was −1.1 (p<0.001, CI −1.5, −0.7), indicating possible skeletal maturation delay (Table 7).
PODCI is the Pediatrics Outcomes Data Collection Instrument (musculoskeletal disorders). The PODCI is a disease-specific questionnaire developed by the American Academy of Orthopedic Surgeons to measure general health and problems related to bone and muscle conditions in children. A significant increase in mean PODCI upper extremity and physical function standardized score was observed from LTE baseline to Month 24 (7.95±12.54, CI 1.003, 14.897, p=0.0278, n=15) for the combined 2.0 and 6.0 mg/kg/day initial dose group. At the same time, a non-significant decrease in mean PODCI transfer and basic mobility standardized score was observed (−4.38±22.68, CI −16.471, 7.703, p=0.451, n=16) (Table 7).

[3] = VBP15-004 adverse events at 24 weeks; parameters: species or system human; conditions: in vivo
Source text: In certain embodiments, the symptom may be an adverse event of special interest (AESI). In this context, AESIs are prespecified based on pre-defined MedDRA search criteria for eleven AESI categories for the corticosteroid class and then further stratified into AESI of at least moderate severity. The symptoms for treating DMD with corticosteroids include, but is not limited to, behavior adverse events, blood glucose related problems, gastrointestinal symptoms, increased arterial blood pressure, immune suppression/infections, skin/hair changes, cataracts/glaucoma, cushingoid features, weight gain, bone fractures, slow growth.
The second period of 24 weeks, where all participants receive vamorolone treatment on either of the two dose levels, will continue to capture additional longer-term safety and tolerability data.

[4] = tested on: osteocalcin, P1NP, CTX; assay: VBP15-004 bone turnover biomarkers; assay type: in vivo, human

Bone Age by wrist x-ray, mean (SD) [2]: 6.8 (1.4), n = 39 yr
Bone Age difference to Chronologic Age, mean (SD) [2]: −1.1 (1.2), yr
Bone Age difference to Chronologic Age, mean (SD) ([2]; listed as vamorolone): −1.1 yr
Osteocalcin, mean (SEM) change at Week 24 ([4]; Vamorolone 2.0 mg): 8.3 (3.1) ng/ml
Procollagen 1 N-Terminal Propeptide (P1NP), mean (SEM) change at Week 24 ([4]; Vamorolone 2.0 mg): 48 (27) ng/mL
Type I Collagen C-Telopeptides (CTX), mean (SEM) change at Week 24 ([4]; Vamorolone 2.0 mg): 177 (52) pg/mL
Osteocalcin, difference vs. prednisone ([4]; Vamorolone 2.0 mg, Week 24): 23.5 ng/mL
Procollagen 1 N-Terminal Propeptide (P1NP), difference vs. prednisone ([4]; Vamorolone 2.0 mg, Week 24): 182 ng/mL
Type I Collagen C-Telopeptides (CTX), difference vs. prednisone ([4]; Vamorolone 2.0 mg, Week 24): 477 pg/mL
Osteocalcin, mean (SEM) change at Week 24 ([4]; Vamorolone 6.0 mg): 1.7 (2.8) ng/ml
Procollagen 1 N-Terminal Propeptide (P1NP), mean (SEM) change at Week 24 ([4]; Vamorolone 6.0 mg): −11 (22) ng/mL
Type I Collagen C-Telopeptides (CTX), mean (SEM) change at Week 24 ([4]; Vamorolone 6.0 mg): 90 (44) pg/mL
Osteocalcin, difference vs. prednisone ([4]; Vamorolone 6.0 mg, Week 24): 16.9 ng/mL
Procollagen 1 N-Terminal Propeptide (P1NP), difference vs. prednisone ([4]; Vamorolone 6.0 mg, Week 24): 124 ng/mL
Type I Collagen C-Telopeptides (CTX), difference vs. prednisone ([4]; Vamorolone 6.0 mg, Week 24): 390 pg/mL
effect on bone biomarkers (osteocalcin, PINP, CTX) ([4]; Week 24, vamorolone 2.0 and 6.0 mg/kg): did not decrease bone biomarkers
Compound: C[C@@H]1C[C@H]2[C@@H]3CCC4=CC(=O)C=C[C@]4(C)C3=CC[C@]2(C)[C@@]1(O)C(=O)CO [Vamorolone, 17α,21-dihydroxy-16α-methylpregna-1,4,9(11)-triene-3,20-dione]
TTCLIMB, LS mean difference [1]: -0.34 s
TTRW, LS mean difference [1]: -0.84 s
clinically relevant psychiatric events, subjects [3]: no vamorolone-treated subjects
Aggression, any severity, F ([3]; male, human, 24 weeks): 1
Agitation, any severity, F ([3]; male, human, 24 weeks): 1
Anxiety, any severity, F ([3]; male, human, 24 weeks): 1
Any Behavior AESI, moderate/severe, F ([3]; male, human, 24 weeks): 1
Irritability, any severity, F ([3]; male, human, 24 weeks): 3
Mood altered, any severity, F ([3]; male, human, 24 weeks): 1
Poor quality sleep, any severity, F ([3]; male, human, 24 weeks): 1
Psychomotor hyperactivity, any severity, F ([3]; male, human, 24 weeks): 2
Serious adverse events, F ([3]; male, human, 24 weeks): 1
Skin laceration, any severity, F ([3]; male, human, 24 weeks): 1
Skin laceration, moderate/severe, F ([3]; male, human, 24 weeks): 1
Sleep disorder, any severity, F ([3]; male, human, 24 weeks): 1
moderate/severe behavior problems, subjects ([3]; male, human, 24 weeks): 1.7%
